Laboratory results as given in patent publication US20230200362A1, “MODEL ORGANISMS HUMANIZED FOR DRUG DISCOVERY AND SCREENING” (NemaMetrix, Inc, priority 2019, published 2023).
Like-named read-outs stand apart in the source and are kept apart here.

How the values were obtained:
[1] = mouse model; combination with cannabidiol; cited from earlier work
C. elegans = assay: phenotypic assay (% adult survival); format: in vivo
DAF-12 [2] = target: T1, DAF-12 (Caenorhabditis elegans, UniProt G5EFF5); assay: mtl-1::GFP reporter antagonist response; format: in vivo, C. elegans
T1 construct: endogenous in cells; host or cells: whole C. elegans animals carrying lin-42::GFP or mtl-1::GFP promoter-fusion reporters
T1 sequence (G5EFF5 1-753): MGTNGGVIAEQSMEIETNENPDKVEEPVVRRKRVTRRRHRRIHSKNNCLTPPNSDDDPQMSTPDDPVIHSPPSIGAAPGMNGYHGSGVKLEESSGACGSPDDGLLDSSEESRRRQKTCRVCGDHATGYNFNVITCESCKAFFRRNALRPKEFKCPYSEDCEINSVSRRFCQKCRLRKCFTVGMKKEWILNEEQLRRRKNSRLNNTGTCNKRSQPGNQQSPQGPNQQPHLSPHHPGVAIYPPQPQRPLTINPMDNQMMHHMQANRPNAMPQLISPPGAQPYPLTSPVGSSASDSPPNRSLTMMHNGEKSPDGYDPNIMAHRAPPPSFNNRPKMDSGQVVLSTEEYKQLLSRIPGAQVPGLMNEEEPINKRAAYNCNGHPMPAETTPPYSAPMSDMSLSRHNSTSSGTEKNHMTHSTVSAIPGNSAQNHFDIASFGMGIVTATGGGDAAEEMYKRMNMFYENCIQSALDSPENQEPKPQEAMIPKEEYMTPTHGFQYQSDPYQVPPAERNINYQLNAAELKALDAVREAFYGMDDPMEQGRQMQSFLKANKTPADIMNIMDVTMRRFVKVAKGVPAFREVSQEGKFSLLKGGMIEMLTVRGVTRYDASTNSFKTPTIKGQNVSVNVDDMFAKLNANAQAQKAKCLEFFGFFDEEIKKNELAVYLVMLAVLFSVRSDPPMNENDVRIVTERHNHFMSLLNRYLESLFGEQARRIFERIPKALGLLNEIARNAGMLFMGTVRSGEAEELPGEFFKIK
Source text: (§1) Chimeric proteins made with the daf-12 nuclear hormone receptor (NHR) can be used for discovery of agonist and antagonist of human NHRs and detect ligands of human NHRs. In C. elegans, the daf-12 protein activity is a key regulator of development. When daf-12 is activated by dafachronic acid under normal growth conditions, animals will proceed to their reproductive life stage. However, when animals face unfavorable conditions, dafachronic acid is not produced and the dauer program is activated leading animals into a stress-resistant arrested state. The unfavorable conditions can be mimicked by treatment with a DAF-12 antagonist, dafadine. Dafadine treatment overcomes the growth condition signal and animals enter the arrested state. Reporter lines can be used to monitor daf-12 chimera activity. In order to create reporter lines for agonist and antagonist discovery, the transcriptional response to treatment with dafachronic acid or dafadine was determined. Dauer animals were treated with 500 nM dafachronic acid and harvested for RNA preparation after four hours of exposure. RNA samples were processed and sent for RNA sequence analysis. […]
(§2) In this illustrative example, animals in the first larval stage were treated with 100uM dafadine for four hours and harvested for RNA preparation and analysis. Two reporter lines were identified by observation of fluorescence after drug treatment. […]

DAF-12 [3] = target: T1, DAF-12; assay: lin-42::GFP reporter agonist response; format: in vivo, C. elegans
Source text: as §1, §2

STXBP1(R406H) = conditions: strain containing the R406H variant exposed to trehalose; cited from earlier work
pharynx::SLC6A4 = assay: ScreenChip pharyngeal pumping frequency in SLC6A4 transgenic C. elegans; format: in vivo; conditions: 10 mM serotonin, first-day adults, 20 minutes incubation; FIG. 2B
Source text: Provided herein are transgenic nematodes and methods of preparing same for expression, as well as methods for using the same drug discovery for human therapeutic targets, such as that illustrated in FIG. 1 and described in more detail herein, wherein the therapeutic target gene is first optimized for expression in a host nematode and then incorporated into the genome of the nematode. Human Solute Carrier Family 6 Member 4 (SLC6A4) is known to transport serotonin out of the synaptic space, thus terminating the action of serotonin. […] Inhibitors of SLC6A4, selective serotonin reuptake inhibitors (SSRls), are commonly used to treat major depressive disorder and anxiety but are also known to cause many unpleasant side-effects. New SSRls can be discovered using the SLC6A4 overexpressing C. elegans transgenic nematodes described in this illustrative example. As shown below, C. elegans transgenic animals overexpressing human SLC6A4 in the pharyngeal muscle show a decrease in pumping frequency when stimulated to pump by food (a mild stimulus) as compared to the wildtype. These animals can be screened to identify novel SSRls. […] Each EPG recording is two minutes in duration and the experiment is replicated in triplicate on different days. […]

For `NC(=O)N1c2ccccc2C=Cc2ccccc21` [carbamazepine], the “interaction with CBD” value [1] is listed as “antagonize”.
With dafadine the EC50 (C. elegans; dafadine, read-out: EC50, phenotypic assay) was 48 µM, the “sensitivity of reporter versus phenotypic assay” value (DAF-12 [2]; mtl-1::GFP reporter vs phenotypic assay) was 9 x and the EC50 (DAF-12 [2]; titrated with dafadine, FIG. 3C) was 5.2 µM.
For `CC[C@@H](C(N)=O)N1CCCC1=O` [levetiracetam], the “interaction with CBD” value [1] is listed as “acts synergistically”.
For dafachronic acid, the “sensitivity of reporter versus phenotypic assay” value (DAF-12 [3]; lin-42::GFP reporter vs phenotype) was “at least 40 x”, the EC50 (DAF-12 [3]; titrated with dafachronic acid, FIG. 3D) was about 0.49 nM and the EC50 (C. elegans; dafachronic acid, FIG. 3E, read-out: EC50, animal's phenotypic response) was 0.017 µM.
In the case of `OC[C@H]1O[C@H](O[C@H]2O[C@H](CO)[C@@H](O)[C@H](O)[C@H]2O)[C@H](O)[C@@H](O)[C@@H]1O` [trehalose], the “levels of aldicarb-induced paralysis” value (STXBP1(R406H)) is listed as “increase to wild-type levels”.
With `NCCc1c[nH]c2ccc(O)cc12` [serotonin, 5-Hydroxytryptamine] the “rate of pharyngeal pumping in SLC6A4 line” value (pharynx::SLC6A4) was “restored”.
